Experimental findings from publication PMC11858884 (Plants, 2025) are described below.

Where two headings read alike, the source gives them in different places.

In assay [1] the target is T1, AchE (from Electrophorus electricus) (Electrophorus electricus, UniProt O42275).
T1 construct: purchased Sigma-Aldrich (Milan, Italy)
The experiment in a line: biochemical. As to the method: The acetylcholinesterase (AchE) inhibitory activity was evaluated using a method described by Balkrishna et al. with slight modification (for details, see the Supporting Materials). […]
[…] IC50 values were calculated through a linear regression and expressed as means ± SD (standard deviation). They were considered statistically significant with values of p < 0.05.
Acetylcholinesterase inhibition assay
The assay mechanism forecasts that the AchE enzyme hydrolyses the substrate acetylthiocholine, resulting in the product “thiocholine” which reacts with Ellman’s reagent (5,5’-dithio-bis-(2-nitrobenzoic acid), DTNB) to produce 2-nitrobenzoate-5-mercaptothiocholine and 5-thio-2-nitrobenzoate (TNB); the latter can be detected at 415 nm. 150 µL of phosphate buffer (0.1 M), 20 microliters of the sample (final concentrations of 100, 200, […]
300 µM) and 20 µL of 0.2 U/mL AchE (from Electrophorus electricus) were treated in 96-well plates and […]

The target of assay [2] is mushroom tyrosinase. Put plainly: Tyrosinase inhibition assay (spectrophotometric, L-tyrosine, dopachrome at 495 nm). The class given is biochemical, Agaricus bisporus. Conditions: mushroom tyrosinase 100 U/mL, 1 mM L-tyrosine, 37 °C; mean of three experiments; read-out: Tyrosinase inhibitory activity IC50±SD. As to the method: The tyrosinase inhibitory activity was evaluated using a method previously described with slight modification (for details, see the Supporting Materials). […]
Tyrosinase inhibition assay
30 microliters of the sample (final concentrations of 50, 100, 200 µM) and 50 µL of 100 U/mL mushroom tyrosinase were treated in 96-well plates and incubated at 37 ◦C for 15 min. Subsequently, 50 µL of 1 mM L-tyrosine was added and then reacted at 37 ◦C for 15 min. The amount of dopachrome formed was measured at 495 nm using Thermo Scientific™ Multiskan SkyHig h Microplate Spectrophotometer. Each sample has been tested in triplicate and the tyrosinase inhibitory activity was calculated using the following equation:
Tyrosinase inhibitory activity (I%) = [1 − (S − S0)/ (C − C0)] × 100 where S is the absorbance of the sample, tyrosinase, and L-tyrosine; S0 is the absorbance of the sample and L-tyrosine; C is the absorbance of tyrosinase and L-tyrosine, and C0 is the absorbance of L-tyrosine (negative […]
control). […] IC50 values were calculated through a linear regression and expressed as means ± SD (standard deviation). They were considered statistically significant with values of p < 0.05. […]

Assay [3] deals with mushroom tyrosinase. Put plainly: Tyrosinase inhibition kinetics study (Lineweaver-Burk plot). The assay is classed as biochemical, Agaricus bisporus. As to the method:
Kinetic analysis of the tyrosinase enzyme for compound 13 was carried out using the Lineweaver–Burk double reciprocal plot. […] At 37 °C, the enzyme inhibition reaction was recorded by measuring the absorbance of the microplate reader at 495 nm for 0, 3, 6, 9, 12, and 15 min.

The mark [4] stands for this setting: 0.2 U/mL AchE, acetylthiocholine, 37 °C, mean of three experiments, read-out: AchE inhibitory activity IC50±SD.

T1 sequence (O42275 24-633): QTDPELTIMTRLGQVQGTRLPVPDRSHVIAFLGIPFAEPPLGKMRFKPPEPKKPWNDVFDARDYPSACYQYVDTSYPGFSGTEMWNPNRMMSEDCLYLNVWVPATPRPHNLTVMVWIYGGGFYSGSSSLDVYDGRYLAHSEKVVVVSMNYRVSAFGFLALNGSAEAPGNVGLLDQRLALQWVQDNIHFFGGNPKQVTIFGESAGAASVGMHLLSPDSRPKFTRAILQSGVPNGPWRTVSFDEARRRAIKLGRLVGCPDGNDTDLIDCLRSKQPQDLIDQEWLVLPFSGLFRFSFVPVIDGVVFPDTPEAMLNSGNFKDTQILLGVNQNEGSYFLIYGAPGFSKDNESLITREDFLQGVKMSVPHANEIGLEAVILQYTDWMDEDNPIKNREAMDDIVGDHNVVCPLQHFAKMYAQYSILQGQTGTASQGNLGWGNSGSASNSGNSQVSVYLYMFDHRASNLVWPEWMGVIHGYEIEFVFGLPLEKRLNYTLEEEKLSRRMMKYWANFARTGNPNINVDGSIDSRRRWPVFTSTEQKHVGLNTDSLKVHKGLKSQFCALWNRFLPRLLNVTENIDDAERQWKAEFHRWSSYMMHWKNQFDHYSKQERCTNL

Turning to `C=C1C(=O)O[C@@H]2/C=C(/C)[C@H](O)C[C@@H](O)C(=C)C[C@H](OC(=O)/C(C)=C\C)[C@@H]12` [Compound 11, 3-Epi-hydroxyisonobilin], the figures for the IC50 (in assay [1] (setting [4]); at mushroom tyrosinase [2]) were 263 ± 11.2 µM and 286 ± 8.28 µM, respectively.

As for `COc1ccc(-c2cc(=O)c3c(O)c(OC)c(O)cc3o2)cc1` [Compound 15, 5,7-Dihydroxy-6-methoxy-2-(4-methoxyphenyl)-4H-1-benzopyran-4-one], the concentration for half-maximal inhibition (IC50) (as a rule, the concentration that gives 50% inhibition) came out at 190 µM in assay [1] (setting [4]) and 212 ± 6.76 µM at mushroom tyrosinase [2].

Compound `O=c1cc(-c2ccc(O)cc2)oc2cc(O)cc(O)c12` [Compound 9, Apigenin] registered a 50% inhibitory concentration (IC50) in assay [1] of 362 ± 10.1 µM.

For `COc1ccc(-c2oc3cc(O[C@@H]4O[C@H](CO)[C@@H](O)[C@H](O)[C@H]4O)c(OC)c(O)c3c(=O)c2O)cc1` [Compound 7, Camaraside], the results for the IC50 (in assay [1] (setting [4]); on mushroom tyrosinase [2]) were 232 ± 9.98 µM and 87.4 ± 5.67 µM, respectively.

For the compound `OC[C@H]1O[C@@H](OCCc2ccccc2)[C@H](O)[C@@H](O)[C@@H]1O` [Compound 3, Phenylethyl ꞵ-D-glucopyranoside], the figures for the IC50 (in assay [1] (setting [4]); on mushroom tyrosinase [2]) were 281 ± 10.1 µM and 196 ± 7.01 µM, respectively.

On to `C=C1C[C@H](OC(=O)/C(C)=C\C)[C@H]2C(=C)C(=O)O[C@@H]2/C=C(/C)[C@@H](O)CC1=O` [Compound 12, Nobilinon A], for which the IC50 came to 244 ± 9.11 µM in assay [1] (setting [4]) and 314 ± 8.09 µM at mushroom tyrosinase [2].

Turning to `C=C1CC(OC(=O)C(C)=CC)C2C(C=C(C)C(O)CC1O)OC(=O)C2C` (stereo not shown) [Compound 13, 11,13-Dihydro-8-tigloylhydroxyisonobilin], the IC50 in assay [1] (setting [4]) was 245 ± 9.16 µM; at mushroom tyrosinase [2], 146 µM. The “Type of tyrosinase inhibition” value with mushroom tyrosinase [3] (Lineweaver-Burk double reciprocal plot) is recorded as “uncompetitive”. Further, in the assay with mushroom tyrosinase [3] (inhibitor 53.52 µg/mL, L-tyrosine 1-0.125 mM, control Vmax 42.02 µM/min), the “Vmax in the presence of the inhibitor” value was 27.25 µM/min.

In the case of `C=C1C(=O)O[C@@H]2/C=C(/C)[C@@H](O)C/C=C(\C)C[C@H](OC(=O)/C(C)=C\C)[C@@H]12` [Compound 14, Nobilin], the IC50 in assay [1] (read-out: AchE inhibitory activity IC50±SD) was found to be 304 µM; on mushroom tyrosinase [2], 297 ± 7.23 µM.

As for “ꞵ-D-Glucopyranose, 1-[(2 Z)-2 methyl-2-butenoate] [Compound 5]”, the IC50 in assay [1] (setting [4]) turned out to be 388 ± 11.1 µM; at mushroom tyrosinase [2] it was 299 ± 7.86 µM.

Turning to `C=C1C(=O)O[C@@H]2/C=C(/C)[C@@H](O)C[C@@H](O)C(=C)C[C@H](OC(=O)/C(C)=C/C)[C@@H]12` [Compound 8, 8-Tigloylhydroxyisonobilin], the IC50 in assay [1] (setting [4]) stood at 225 µM; on mushroom tyrosinase [2], 184 ± 7.12 µM.

On to `O=C(O)C[C@@H]1CCC(=O)[C@@H]1C/C=C\CCO[C@@H]1O[C@H](CO)[C@@H](O)[C@H](O)[C@H]1O` [Compound 2, Tuberonic acid glucoside], for which the IC50 in assay [1] (setting [4]) came out at 343 ± 10 µM; on mushroom tyrosinase [2], 192 ± 7.92 µM.

Consider `COc1cc2ccc(=O)oc2cc1O[C@@H]1O[C@H](CO)[C@@H](O)[C@H](O)[C@H]1O` [Compound 1, Scopolin], for which the IC50 amounted to 231 µM in assay [1] (setting [4]) and 46.8 ± 6.34 µM at mushroom tyrosinase [2].

`C[C@@H]1O[C@@H](OC[C@H]2O[C@@H](Oc3cc(O)c4c(=O)cc(-c5ccc(O)cc5)oc4c3)[C@H](O)[C@@H](O)[C@@H]2O)[C@H](O)[C@H](O)[C@H]1O` [Compound 6, Apigenin 7-O-rutinoside]: the values for the IC50 (in assay [1] (setting [4]); at mushroom tyrosinase [2]) were 182 µM and 32.1 µM, respectively.

For `CCC(C)O[C@@H]1O[C@H](CO)[C@@H](O)[C@H](O)[C@H]1O` (stereo partly drawn) [Compound 4, 1-Methylpropyl ꞵ-D-glucopyranoside], the half-inhibitory concentration (IC50) came out at 352 ± 9.03 µM in assay [1] (setting [4]) and 412 ± 8.12 µM at mushroom tyrosinase [2].

`C=C1C(=O)O[C@@H]2/C=C(/C)[C@@H](O)C[C@@H](O)C(=C)C[C@H](OC(=O)/C(C)=C\C)[C@@H]12` [Compound 10, Hydroxyisonobilin]: the IC50 came out at 268 ± 12.1 µM in assay [1] (setting [4]) and 188 ± 6.63 µM on mushroom tyrosinase [2].
